Measured values reported in patent publication US5668136A, “Trisubstituted benzene derivatives, composition and methods of treatment” (priority 1990, dated 1997).

Key:
ACAT = target: T1, ACAT (Oryctolagus cuniculus, UniProt G1SFD9); assay: ACAT-inhibitory activity (in-vitro test, esterification of cholesterol with oleoyl-CoA, microsome of the small intestine of a rabbit); format: biochemical
T1 construct: by using the microsome of the small intestine of a rabbit as an enzyme source; from tissue; host or cells: rabbit small intestine, microsomes
T1 sequence (G1SFD9 1-524): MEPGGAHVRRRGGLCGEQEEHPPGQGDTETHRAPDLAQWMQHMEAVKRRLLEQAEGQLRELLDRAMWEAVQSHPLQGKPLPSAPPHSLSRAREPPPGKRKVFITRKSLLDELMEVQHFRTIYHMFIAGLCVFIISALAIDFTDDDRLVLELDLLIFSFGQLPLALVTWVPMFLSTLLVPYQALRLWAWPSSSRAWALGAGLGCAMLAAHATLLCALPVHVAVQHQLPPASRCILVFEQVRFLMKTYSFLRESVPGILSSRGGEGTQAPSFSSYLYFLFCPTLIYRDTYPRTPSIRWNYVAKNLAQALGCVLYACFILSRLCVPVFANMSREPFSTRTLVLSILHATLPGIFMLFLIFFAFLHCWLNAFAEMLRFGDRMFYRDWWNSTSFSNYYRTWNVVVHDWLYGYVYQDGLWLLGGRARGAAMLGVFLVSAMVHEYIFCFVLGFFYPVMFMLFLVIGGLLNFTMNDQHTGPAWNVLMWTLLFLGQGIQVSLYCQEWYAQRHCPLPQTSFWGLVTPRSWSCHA
Method: Representative compounds according to the present invention were examined for ACAT-inhibitory activity according to the in-vitro test proposed in Journal of Lipid Research, vol.
The inhibitory activity of a test compound against esterification or acylation of cholesterol with oleoyl CoA or acyl-CoA was evaluated by using the microsome of the small intestine of a rabbit as an enzyme source and determining the amount of a radioisotope-labeled cholesterol oleate made from a radioisotope-labeled oleoyl-CoA and (free) cholesterol.

[1] = In-vivo test: serum cholesterol level in hypercholesterolemic rats; design: species or system male Sprague-Dawley rat; conditions: oral, once a day, 10 mg per kg; food containing 1% of cholesterol for 2 days
Method: A male Sprague-Dawley rat was made to get hypercholesterolemia by feeding with food containing 1% of cholesterol for 2 days. A compound of the present invention (compound of Example 1, 54, 17 or 64) was orally administered to the rat once a day in a dose of 10 mg per kg of the weight.

[2] = One week toxic study in rats; format: in vivo, Sprague-Dawley rats; conditions: oral, 100 mg/kg daily for one week; for toxicity (overall finding of one week study): same condition
Method: The compound was orally given to animals at daily does of 100 mg/kg for one week.

Row | Compound | IC50 (ACAT) | lowering of serum cholesterol level [1] | toxicity (overall finding of one week study) [2] | toxicological symptom during the administration [2]
1 | CCCCCNC(=O)Nc1c(OCCCn2cnc(-c3ccccc3)c2C)cccc1N(C)C [Example 1, N-[6-N,N-Dimethylamino-2-{3-(5-methyl-4-phenyl-1H-imidazol-1-yl)propoxy}]phenyl-N'-pentylurea] | 0.043 µM | effectively lowered | no toxic substances | 
2 | CCCCNC(=O)Nc1c(OCCCn2cnc(-c3ccccc3)c2)cccc1N(C)C [Example 2, N-[6-N,N-Dimethylamino-2-{3-(4-phenyl-1H-imidazol-1-yl)propoxy}]phenyl-N'-butylurea] |  |  | no toxic substances | 
3 | CCCCCNC(=O)Nc1c(OCCCn2cnc(-c3ccccc3)c2)cccc1N(C)C [Example 5, N-[6-N,N-Dimethylamino-2-{3-(4-phenyl-1H-imidazol-1-yl)propoxy}]phenyl-N'-pentylurea] |  |  | no toxic substances | 
4 | CCCCCCNC(=O)Nc1c(OCCCn2cnc(-c3ccccc3)c2)cccc1N(C)C [Example 17, N-[6-N,N-Dimethylamino-2-{3-(4-phenyl-1H-imidazol-1-yl)propoxy}]phenyl-N'-hexylurea] | 0.031 µM | effectively lowered | no toxic substances | 
5 | CCCCNC(=O)Nc1c(C)cccc1OCCCn1cnc(-c2ccccc2)c1 [Example 54, N-[6-Methyl-2-{3-(4-phenyl-1H-imidazol-1-yl)propoxy}]-phenyl-N'-butylurea] | 0.048 µM | effectively lowered |  | 
6 | CCCCCNC(=O)Nc1c(OCCCN2CCN(c3ccccc3)CC2)cccc1N(C)C [Example 64, N-[6-N,N-Dimethylamino-2-{3-(4-phenylpiperazin-1-yl)propoxy}]phenyl-N'-pentylurea] | 0.017 µM | effectively lowered |  | 
7 | CCCCNC(=O)Nc1c(C)cccc1OCCCn1cnc(-c2ccccc2)c1C(C)C [Example 80, N-[6-Methyl-2-[3-{5-(1-methylethyl)-4-phenyl-1H-imidazol-1-yl}propoxy]]phenyl-N'-butylurea] | 0.088 µM |  | no toxic substances | 
8 | CCCCNC(=O)Nc1c(C)cccc1OCCCn1cnc(-c2ccccc2)c1CC [Example 81, N-[6-Methyl-2-{3-(5-ethyl-4-phenyl-1H-imidazol-1-yl)-propoxy}]phenyl-N'-butylurea] |  |  | no toxic substance | No toxicological sympton was observed
9 | CCCCCNC(=O)Nc1c(C)cccc1OCCCn1cnc(-c2ccccc2)c1Cl [Example 93, N-[6-Methyl-2-{3-(5-chloro-4-phenyl-1H-imidazol-1-yl)-propoxy}]phenyl-N'-pentylurea] | 0.049 µM |  |  | 
10 | CCCCCNC(=O)Nc1c(C)cccc1OCCCn1cnc(-c2ccccc2)c1C [Example 127, N-[6-Methyl-2-{3-(5-methyl-4-phenyl-1H-imidazol-1-yl)-propoxy}]phenyl-N'-pentylurea] | 0.1 µM |  | no toxic substances | 
